Measured values from ChEMBL document CHEMBL3046494, “Identification of liver X receptor and farnesoid X receptor dual agonists from Tithonia diversifolia” (Med Chem Res, 2013).
The source made the active and inactive calls. The calls are words filed in the database; no cut-off is given here.

Legend:
Assay type in all cases: cell-based
[1] = biological target: T1, Bile acid receptor (Homo sapiens) (UniProt Q96RI1); assay: Agonist activity at Homo sapiens (human) FXR ligand binding domain expressed in HepG2 cells assessed as transactivation of SHP gene expression at 100 nM after 48 hr by luciferase reporter gene assay relative to control
T1 sequence (whole entry): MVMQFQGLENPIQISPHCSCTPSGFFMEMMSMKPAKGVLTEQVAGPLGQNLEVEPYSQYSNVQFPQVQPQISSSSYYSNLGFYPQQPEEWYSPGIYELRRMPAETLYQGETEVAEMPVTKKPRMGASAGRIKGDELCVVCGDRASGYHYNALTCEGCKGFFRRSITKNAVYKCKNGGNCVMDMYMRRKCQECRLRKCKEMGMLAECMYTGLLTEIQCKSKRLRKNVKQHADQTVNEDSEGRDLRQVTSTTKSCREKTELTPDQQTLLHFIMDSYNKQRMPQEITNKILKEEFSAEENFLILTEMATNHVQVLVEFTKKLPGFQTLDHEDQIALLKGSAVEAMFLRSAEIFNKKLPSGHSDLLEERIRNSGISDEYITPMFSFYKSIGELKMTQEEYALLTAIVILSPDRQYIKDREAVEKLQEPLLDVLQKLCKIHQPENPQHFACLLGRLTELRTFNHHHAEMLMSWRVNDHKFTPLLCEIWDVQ

[2] = biological target: T1, Bile acid receptor (Homo sapiens); assay: Agonist activity at Homo sapiens (human) FXR ligand binding domain expressed in HepG2 cells assessed as transactivation of SHP gene expression at 10 uM after 48 hr by luciferase reporter gene assay relative to control
[3] = biological target: T2, Oxysterols receptor LXR-beta (Homo sapiens) (UniProt P55055); assay: Agonist activity at Homo sapiens (human) LXRbeta expressed in HepG2 cells assessed as transactivation of ABCA1 gene expression at 1 uM after 48 hr by luciferase reporter gene assay relative to control
T2 sequence (whole entry): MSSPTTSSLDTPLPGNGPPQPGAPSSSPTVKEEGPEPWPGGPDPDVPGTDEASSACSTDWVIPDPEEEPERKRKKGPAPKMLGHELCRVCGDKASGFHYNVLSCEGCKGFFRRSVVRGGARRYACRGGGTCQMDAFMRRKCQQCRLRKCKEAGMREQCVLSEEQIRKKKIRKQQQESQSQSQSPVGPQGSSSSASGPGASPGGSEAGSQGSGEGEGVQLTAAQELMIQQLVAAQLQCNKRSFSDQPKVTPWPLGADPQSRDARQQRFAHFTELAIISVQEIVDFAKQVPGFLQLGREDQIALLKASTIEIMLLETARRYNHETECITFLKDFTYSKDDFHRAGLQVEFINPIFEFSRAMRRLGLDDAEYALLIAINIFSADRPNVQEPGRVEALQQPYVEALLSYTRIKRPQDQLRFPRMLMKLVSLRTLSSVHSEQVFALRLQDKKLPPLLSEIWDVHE

[4] = biological target: T3, Oxysterols receptor LXR-alpha (Homo sapiens) (UniProt Q13133); assay: Agonist activity at Homo sapiens (human) LXRalpha expressed in HepG2 cells assessed as transactivation of SREBP1c gene expression after 48 hr by luciferase reporter gene assay
T3 sequence (whole entry): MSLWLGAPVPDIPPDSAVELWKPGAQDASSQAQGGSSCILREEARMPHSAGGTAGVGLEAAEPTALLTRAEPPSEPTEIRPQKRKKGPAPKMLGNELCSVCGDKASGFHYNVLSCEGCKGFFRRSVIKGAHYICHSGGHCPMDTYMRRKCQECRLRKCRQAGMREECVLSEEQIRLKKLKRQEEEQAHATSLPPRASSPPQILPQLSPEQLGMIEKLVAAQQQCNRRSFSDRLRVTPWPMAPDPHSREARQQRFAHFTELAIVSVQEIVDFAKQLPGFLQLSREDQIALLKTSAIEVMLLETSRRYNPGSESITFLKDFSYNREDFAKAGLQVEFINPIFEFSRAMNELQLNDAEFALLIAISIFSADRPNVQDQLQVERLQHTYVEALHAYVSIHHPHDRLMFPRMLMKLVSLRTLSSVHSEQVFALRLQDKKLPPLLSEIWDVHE

[5] = biological target: T3, Oxysterols receptor LXR-alpha (Homo sapiens); assay: Agonist activity at Homo sapiens (human) LXRalpha expressed in HepG2 cells assessed as transactivation of SREBP1c gene expression at 10 uM after 48 hr by luciferase reporter gene assay relative to control
[6] = biological target: T3, Oxysterols receptor LXR-alpha (Homo sapiens); assay: Agonist activity at Homo sapiens (human) LXRalpha expressed in HepG2 cells assessed as decrease in PEPCK gene transactivation at 10 uM after 48 hr by luciferase reporter gene assay relative to control; design: scale not given: the % may be the effect or the level left
[7] = biological target: T3, Oxysterols receptor LXR-alpha (Homo sapiens); assay: Agonist activity at Homo sapiens (human) LXRalpha expressed in HepG2 cells assessed as transactivation of CYP7A1 gene expression at 10 uM after 48 hr by luciferase reporter gene assay relative to vehicle-treated control
[8] = biological target: T1, Bile acid receptor (Homo sapiens); assay: Agonist activity at Homo sapiens (human) FXR ligand binding domain expressed in HepG2 cells assessed as transactivation of GAL4 gene expression at 100 nM after 48 hr by luciferase reporter gene assay relative to control
[9] = biological target: T2, Oxysterols receptor LXR-beta (Homo sapiens); assay: Agonist activity at Homo sapiens (human) LXRbeta expressed in HepG2 cells assessed as transactivation of ABCA1 gene expression at 10 uM after 48 hr by luciferase reporter gene assay relative to control
[10] = biological target: T3, Oxysterols receptor LXR-alpha (Homo sapiens); assay: Agonist activity at Homo sapiens (human) LXRalpha expressed in HepG2 cells assessed as transactivation of ABCA1 gene expression at 10 uM after 48 hr by luciferase reporter gene assay relative to control
[11] = biological target: T3, Oxysterols receptor LXR-alpha (Homo sapiens); assay: Agonist activity at Homo sapiens (human) LXRalpha expressed in HepG2 cells assessed as transactivation of SREBP1c gene expression at 1 uM after 48 hr by luciferase reporter gene assay relative to control
[12] = biological target: T2, Oxysterols receptor LXR-beta (Homo sapiens); assay: Agonist activity at Homo sapiens (human) LXRbeta expressed in HepG2 cells assessed as transactivation of ABCA1 gene expression after 48 hr by luciferase reporter gene assay
[13] = biological target: T3, Oxysterols receptor LXR-alpha (Homo sapiens); assay: Agonist activity at Homo sapiens (human) LXRalpha expressed in HepG2 cells assessed as transrepression of PEPCK gene expression after 48 hr by luciferase reporter gene assay
[14] = biological target: T1, Bile acid receptor (Homo sapiens); assay: Agonist activity at Homo sapiens (human) FXR ligand binding domain expressed in HepG2 cells assessed as transactivation of GAL4 gene expression at 1 uM after 48 hr by luciferase reporter gene assay relative to control
HepG2 = assay: Cytotoxicity against Homo sapiens (human) HepG2 cells after 48 hr; conditions: hepg2, 48 h
[15] = biological target: T3, Oxysterols receptor LXR-alpha (Homo sapiens); assay: Agonist activity at Homo sapiens (human) LXRalpha expressed in HepG2 cells assessed as transactivation of ABCA1 gene expression after 48 hr by luciferase reporter gene assay
[16] = biological target: T3, Oxysterols receptor LXR-alpha (Homo sapiens); assay: Agonist activity at Homo sapiens (human) LXRalpha expressed in HepG2 cells assessed as PEPCK gene expression at 100 nM after 48 hr by luciferase reporter gene assay relative to control

| Structure (SMILES) | Activity [1] | fold change (FC) [2] | fold change (FC) [3] | Activity [4] | fold change (FC) [5] | Activity [6] [%] | fold change (FC) [7] | Activity [8] | fold change (FC) [9] | fold change (FC) [10] | fold change (FC) [11] | Activity [12] | Activity [13] | fold change (FC) [14] | Activity (HepG2) | Activity [15] | fold change (FC) [16] | Activity [16] |
| --- | --- | --- | --- | --- | --- | --- | --- | --- | --- | --- | --- | --- | --- | --- | --- | --- | --- | --- |
| C=C1C(=O)O[C@@H]2C[C@H](C)[C@@]3(O)CC[C@@](C)(C[C@@H](OC(=O)C(C)C)[C@@H]12)O3 [TIROTUNDIN] | inactive | 2.41 | 1.5 | Dose-dependent effect | 4.52 | 46 | 2 | inactive | 2.2 | 1.7 | 2.3 | Dose-dependent effect | Dose-dependent effect | 1.6 | Non-toxic | Dose-dependent effect | 0.94 |  |
| C=C1C(=O)O[C@@H]2/C=C(/C)C(=O)/C=C/[C@](C)(O)C[C@@H](OC(=O)C(C)C)[C@@H]12 [TAGITININ C] |  |  |  |  |  |  |  |  |  |  |  |  |  |  | Toxic |  |  |  |
| C=C1C(=O)O[C@@H]2C[C@H](C)[C@@]3(O)C[C@H](O)[C@@](C)(C[C@@H](OC(=O)C(C)C)[C@@H]12)O3 [TAGITININ A] | inactive | 2.3 | 1.5 | Dose-dependent effect | 3.42 | 58 | 2 | inactive | 1.5 | 1.9 | 2.26 | Dose-dependent effect | Dose-dependent effect | 1.6 | Non-toxic | Dose-dependent effect |  | inactive |
